Experimental data taken from ChEMBL document CHEMBL1201862, “PubChem BioAssay data set” (2004).
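Where inhibition never reached the appropriate level, the endpoint shown equals the highest concentration tested. Otherwise, values were interpolated linearly from a five-concentration, 48-hour dose response in 96-well plates. GI50 marks 50% less growth.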 Calls of active or inactive are those of the source. No stated cut-off is given here; in the data, active = GI50 up to about 1.1 µM and inactive = higher.

What was measured:
Assay in all cases: growth of human tumour cells (NCI), 48 h
DLD-1 = system: DLD-1
M19-MEL = system: M19-MEL
DMS-273 = system: DMS-273
HOP-18 = system: HOP-18
SNB-78 = system: SNB-78
RXF 631 = system: RXF 631
DMS-114 = system: DMS-114
KM-20L2 = system: KM-20L2
XF498 = system: XF498

SMILES	GI50 (DLD-1)	GI50 (M19-MEL)	GI50 (DMS-273)	GI50 (HOP-18)	GI50 (SNB-78)	GI50 (RXF 631)	GI50 (DMS-114)	GI50 (KM-20L2)	GI50 (XF498)
COc1cccc(NC(=O)C(=O)C(C(C)=O)c2nc3ccc(Cl)cc3nc2O)c1 (centres undefined)	> 100 µM (inactive)	> 100 µM (inactive)	> 100 µM (inactive)	> 100 µM (inactive)	> 100 µM (inactive)	> 100 µM (inactive)	> 100 µM (inactive)	> 100 µM (inactive)	–
Nc1ncnc2c1nnn2C1C=C(CO)C(O)C1O (centres undefined)	35.2 µM (inactive)	> 79.1 µM (inactive)	44 µM (inactive)	95.3 µM (inactive)	> 86.7 µM (inactive)	–	44.5 µM (inactive)	50.5 µM (inactive)	> 100 µM (inactive)
O=C(/N=c1/[nH]/c(=N/C(=O)c2ccccc2)ss1)c1ccccc1	–	33.6 µM (inactive)	23.1 µM (inactive)	–	48.1 µM (inactive)	–	26.7 µM (inactive)	29.5 µM (inactive)	–
N=C(N)SCc1cccc2c(=O)cc(-c3ccccc3)oc12	7.59 µM (inactive)	13.2 µM (inactive)	7.14 µM (inactive)	–	6.32 µM (inactive)	9.95 µM (inactive)	6.47 µM (inactive)	6.24 µM (inactive)	5.87 µM (inactive)
CC(=O)OCC1OC(n2cc(F)c(=O)[nH]c2=O)C(NC(=O)N(CCCl)N=O)C(OC(C)=O)C1OC(C)=O (centres undefined)	> 100 µM (inactive)	> 100 µM (inactive)	> 100 µM (inactive)	> 100 µM (inactive)	> 100 µM (inactive)	–	81.3 µM (inactive)	> 100 µM (inactive)	36.4 µM (inactive)
O=C1CCC(=O)c2sccc2N1	> 100 µM (inactive)	> 100 µM (inactive)	> 100 µM (inactive)	> 100 µM (inactive)	> 100 µM (inactive)	–	> 100 µM (inactive)	> 100 µM (inactive)	> 100 µM (inactive)
CC(C)(c1ccc(C=O)o1)c1ccc(C(C)(C)c2ccc(C=O)o2)o1	–	–	> 100 µM (inactive)	> 100 µM (inactive)	> 100 µM (inactive)	> 100 µM (inactive)	–	> 100 µM (inactive)	–
O=C(C(=O)c1ccc(Cc2ccc(C(=O)C(=O)c3ccccc3)cc2)cc1)c1ccccc1	> 100 µM (inactive)	> 100 µM (inactive)	> 100 µM (inactive)	> 100 µM (inactive)	> 100 µM (inactive)	> 100 µM (inactive)	> 100 µM (inactive)	> 100 µM (inactive)	–
N#CCc1ccc(C(C#N)/C(CCCC(=O)Nc2cccc([N+](=O)[O-])c2)=N/NC(N)=S)cc1 (centres undefined)	87.5 µM (inactive)	–	> 100 µM (inactive)	> 100 µM (inactive)	57.7 µM (inactive)	86.5 µM (inactive)	99.1 µM (inactive)	> 100 µM (inactive)	–
O=C(N/C(=C\c1ccccc1O)c1nc2ccccc2[nH]1)c1ccccc1	–	> 100 µM (inactive)	56.6 µM (inactive)	63.5 µM (inactive)	43.5 µM (inactive)	–	41.5 µM (inactive)	> 100 µM (inactive)	> 100 µM (inactive)
N#CC(C#N)C(c1ccccc1)c1ccccc1	> 100 µM (inactive)	–	> 100 µM (inactive)	> 100 µM (inactive)	> 100 µM (inactive)	> 100 µM (inactive)	70.8 µM (inactive)	> 100 µM (inactive)	–
CC(=O)c1cccc(N2COC(C)(C)c3nc4ccccc4n3C2)c1	> 100 µM (inactive)	> 100 µM (inactive)	> 100 µM (inactive)	> 100 µM (inactive)	> 100 µM (inactive)	–	> 100 µM (inactive)	> 100 µM (inactive)	> 100 µM (inactive)
COc1ccc2c(c1)C=C(C(C)(C)C)NS2(=O)=O	> 100 µM (inactive)	> 100 µM (inactive)	> 100 µM (inactive)	> 100 µM (inactive)	> 100 µM (inactive)	> 100 µM (inactive)	> 100 µM (inactive)	> 100 µM (inactive)	–
CC1(C)COC(c2cccc3c2C(=O)c2cccc(Cl)c2-3)=N1	–	–	51.4 µM (inactive)	–	97.1 µM (inactive)	74.3 µM (inactive)	36 µM (inactive)	39.9 µM (inactive)	46.7 µM (inactive)
CCOC(=O)Nc1nc2cc(Cn3cccc3)ccc2[nH]1	3.93 µM (inactive)	6.37 µM (inactive)	3.66 µM (inactive)	4.52 µM (inactive)	8.99 µM (inactive)	> 22.3 µM (inactive)	4.9 µM (inactive)	3.25 µM (inactive)	3.5 µM (inactive)
Cc1cc(NCCCCCCNc2cc(C)nc3ccc(Cl)cc23)c2cc(Cl)ccc2n1	16.8 µM (inactive)	21.4 µM (inactive)	20.4 µM (inactive)	–	22.7 µM (inactive)	> 100 µM (inactive)	18.9 µM (inactive)	15.8 µM (inactive)	18.1 µM (inactive)
COc1cc(/C=C(\C#N)C(=O)c2ccccc2)ccc1OCc1ccccc1	–	> 100 µM (inactive)	–	–	> 100 µM (inactive)	–	> 100 µM (inactive)	> 100 µM (inactive)	> 100 µM (inactive)
CS/C(=N/C#N)NCCc1c[nH]c2ccccc12	> 100 µM (inactive)	> 100 µM (inactive)	> 100 µM (inactive)	–	> 100 µM (inactive)	–	60.1 µM (inactive)	44.9 µM (inactive)	34.8 µM (inactive)
CN(C)c1ccc(-c2nc(N)nc3c2CCCC3)cc1	54.5 µM (inactive)	45 µM (inactive)	50.2 µM (inactive)	–	64.7 µM (inactive)	–	38.5 µM (inactive)	57.8 µM (inactive)	19.4 µM (inactive)
CCOC(=O)C1=NC(c2ccccc2)(c2ccccc2)OC1=C(Cl)Cl	80.7 µM (inactive)	29 µM (inactive)	–	> 100 µM (inactive)	96.4 µM (inactive)	50.9 µM (inactive)	–	49.3 µM (inactive)	–
CN(C)CC/C(=N\Nc1ccc(Cl)cc1)c1ccccc1	0.409 µM (active)	1.7 µM (inactive)	0.366 µM (active)	2.13 µM (inactive)	1.38 µM (inactive)	–	0.933 µM (active)	0.176 µM (active)	–
CCOc1ccc(NC(=O)C2=C(C)NC(C)=C(C(=O)Nc3ccc(OCC)cc3)C2c2ccccc2)cc1	97.7 µM (inactive)	> 100 µM (inactive)	> 100 µM (inactive)	–	> 100 µM (inactive)	> 100 µM (inactive)	44.2 µM (inactive)	67 µM (inactive)	> 100 µM (inactive)
C=C(CN(C)C)C(=O)c1ccccc1	2.11 µM (inactive)	9.33 µM (inactive)	13.7 µM (inactive)	3.52 µM (inactive)	22.2 µM (inactive)	24.1 µM (inactive)	3.1 µM (inactive)	19.1 µM (inactive)	15.4 µM (inactive)
CC1(C)CCC[C@@]2(C)C1CCC1(C)C(CCc3ccoc3)/C(=C/OS(=O)(=O)O)CCC12 (some centres undefined)	34.5 µM (inactive)	> 100 µM (inactive)	> 100 µM (inactive)	> 100 µM (inactive)	45.2 µM (inactive)	> 100 µM (inactive)	34.6 µM (inactive)	38.2 µM (inactive)	> 100 µM (inactive)
O=S(O)CCCSSc1ccccc1	41.9 µM (inactive)	39.4 µM (inactive)	30.8 µM (inactive)	> 100 µM (inactive)	32.7 µM (inactive)	–	16.8 µM (inactive)	51.1 µM (inactive)	98.9 µM (inactive)
C=C(CN(C)C)C(=O)c1ccc(Oc2ccccc2)cc1	2.22 µM (inactive)	4.25 µM (inactive)	23.6 µM (inactive)	6.87 µM (inactive)	16.3 µM (inactive)	19.3 µM (inactive)	–	12.2 µM (inactive)	14.8 µM (inactive)
CCCc1c(C(=O)OCC)[nH]c(C(=O)CCC(=O)c2[nH]c(C(=O)OCC)c(CCC)c2C(=O)OCC)c1C(=O)OCC	> 100 µM (inactive)	> 100 µM (inactive)	84.5 µM (inactive)	> 100 µM (inactive)	> 100 µM (inactive)	–	> 100 µM (inactive)	> 100 µM (inactive)	54.3 µM (inactive)
O=C(Cc1ccccc1)NN1C(=O)C(Cl)C1c1ccccc1Cl (centres undefined)	> 69.2 µM (inactive)	> 100 µM (inactive)	72.8 µM (inactive)	> 100 µM (inactive)	83.6 µM (inactive)	–	32.6 µM (inactive)	98.6 µM (inactive)	> 75 µM (inactive)
Cc1nc(Nc2ccccc2)sc1C(=O)NNc1ccc([N+](=O)[O-])cc1[N+](=O)[O-]	25.5 µM (inactive)	36 µM (inactive)	25.7 µM (inactive)	21.5 µM (inactive)	49.2 µM (inactive)	–	23.3 µM (inactive)	24.7 µM (inactive)	24.3 µM (inactive)
CC(=O)C1C(c2ccc(N(C)C)cc2)c2cc3c(cc2OC1(C)O)OCO3 (centres undefined)	59.3 µM (inactive)	45.2 µM (inactive)	29.4 µM (inactive)	68.9 µM (inactive)	56 µM (inactive)	–	33.3 µM (inactive)	6.85 µM (inactive)	34 µM (inactive)
